Laboratory results as given in publication PMC5342262, “Synthesis, in vitro and in vivo evaluation of 3β-[^18F]fluorocholic acid for the detection of drug-induced cholestasis in mice” (PLoS ONE, 2017).
Several values for one entry are separate records, joined by “and”; a condition that tells them apart may be missing. Equal values may be shown once. Entries after “also recorded” stand apart in the source; their conditions may differ.

What was measured:
[1] = LogD of [^18F]FCA in octanol/PBS pH 7.4; assay type: physicochemical; details: octanol/PBS 50:50 v:v, n = 3
Experimental: 1 MBq of [^18F]FCA was used to spike an octanol/PBS 50:50 v:v pH 7.4 mixture in a test tube. After mixing and centrifugation (5 min; 1100 g), aliquots were taken from each layer and radioactivity was measured in a NaI (Tl) scintillation counter (Capintec; Ramsey, NJ, USA). The LogD value of [^18F]FCA was calculated as the logarithm of the ratio of counts in octanol and PBS.

[2] = Stability of [^18F]FCA in its PBS formulation; assay type: physicochemical; details: PBS pH 7.4 formulation; room temperature
[3] = Dynamic PET of [^18F]FCA in wild-type FVB mice; assay type: in vivo
Experimental: Food and water was provided ad libitum. Animals were fasted overnight before the PET-scan.
A CT-scan was acquired for anatomical correlation.
In vivo characteristics of [^18F]FCA were investigated by a two hour dynamic PET scan with 30 MBq [^18F]FCA, injected intravenously (n = 3). Four and six hours post-injection, a 30 minute static scan was performed.
P-values ≤ 0.05 were considered significant.

[4] = tested on: hepatobiliary transport of [^18F]FCA; assay: Dynamic PET of [^18F]FCA in control, rifampicin and bosentan treated FVB-mice; details: female, FVB, mouse, in vivo
Experimental: Hepatobiliary transport of the tracer was evaluated in female wild-type FVB mice (5 weeks old, Charles River). The animals were housed in accordance with European Ethics Committee guidelines. The animal studies were approved by the Animal Experimental Ethical Committee of Ghent University (ECD 15/69). Food and water was provided ad libitum. Animals were fasted overnight before the PET-scan.
Mice were anesthetized with 1.5 v:v % isoflurane in 100% O2 for the duration of the experiment. An intravenous polyethylene line was placed in the lateral tail vein. The animals were placed in the small animal PET/CT-scanner (FLEX Triumph II small animal PET/CT-scanner; PET field of view: 7.5 cm axial; 1.3 mm spatial resolution; TriFoil Imaging) on a heated bed. A CT-scan was acquired for anatomical correlation.
The interaction of rifampicin (Sigma Aldrich) and bosentan (Activate Scientific) on in vivo [^18F]FCA transport was examined. FVB-mice were divided into 3 different groups (n = 3 per group): rifampicin, bosentan, and a control DMSO vehicle treated group). Both drugs were administered in doses of 100 mg/kg, intra-peritoneal in DMSO:PBS 70:30 v:v (rifampicin) or DMSO (bosentan) 1 hour before the start of the PET-scan. An additional dose (25 mg/kg for rifampicin in DMSO:PBS 40:60 v:v, 50 mg/kg for bosentan in DMSO) was co-injected intravenously with the tracer.
For each scan, 10 MBq of [^18F]FCA was administered intravenously and a 1 hour dynamic scan was started. Immediately after the dynamic scan, 18 MBq [^18F]FDG was injected intravenously. After 20 minutes, a 20 minutes static scan was taken.
PET-data were obtained in list-mode and were iteratively reconstructed (50 iterations) in frames of 15 seconds for the first 10 minutes, followed by 50 frames of 1 minute. ROI’s were drawn manually over liver, gallbladder and intestines using PMod software. A ROI was drawn in the left ventricle on the static [^18F]FDG scan to obtain an image-derived arterial blood input curve. The uptake of [^18F]FCA in arterial blood, liver, gallbladder and intestines was expressed as a % injected dose (% ID) and normalized for the weight of a 20 gram mouse. Time-activity curves (TAC’s) were generated using these values.
AUC, maximum % ID, and time to peak values were determined for the TAC’s with Graphpad Prism v3.00. Differences between 2 groups were determined with the non-parametric Mann-Whitney U test. P-values ≤ 0.05 were considered significant.

[5] = Stability of [^18F]FCA in mouse serum
[6] = Stability/metabolization of [^18F]FCA with primary mouse hepatocytes; details: mouse
[7] = tested on: primary mouse hepatocytes; assay: as above; details: 37°C

In the case of `C[C@H](CCC(=O)O)[C@H]1CC[C@H]2[C@@H]3[C@H](O)C[C@@H]4C[C@@H]([18F])CC[C@]4(C)[C@H]3C[C@H](O)[C@]12C` [[^18F]FCA, 3β-[^18F]Fluorocholic Acid], the logD [1] is reported as 1.19 ± 0.1, the “time stable in PBS formulation” value [2] is reported as “at least 6 hours” and the “AUC gallbladder & intestines % injected dose” value ([3]; IV, n = 3) is reported as 4105 ± 36 % ID.min. For the same compound, the “Time to peak liver” value ([3]; IV, n = 3) was 4.5 min and 4.5 ± 0.5 min, the “Max % injected dose liver” value ([3]; IV, n = 3, normalized for a 20 g mouse) was 71.8 % ID and 71.8 ± 1.2 % ID and the “uptake in urinary bladder or other organs” value ([3]; PET/CT images up to 6 hours post-injection) was “no uptake in other organs than liver, gallbladder and intestines”. For the same compound, the “radioactivity in gallbladder and intestines” value ([3]; after 1 hour) was 93.3 ± 6.0 % ID and 93.3 % ID, the “AUC arterial blood % injected dose” value [4] was 1.909 ± 0.572 % ID.min and the “AUC gallbladder & intestines % injected dose” value [4] was 3718 ± 182 % ID.min. The “Time to peak liver” value [4] was 5.5 ± 1.1 min, the “Max % injected dose liver” value ([4]; iv) was 71.2 ± 3.5 % ID and the “time stable in presence of mouse serum” value ([5]; 37°C) was “at least 1 hour”. The “degradation or metabolization products in mouse serum” value ([5]; 37°C, 5, 10, 30 and 60 minutes) was “No degradation or metabolization products”, the recovery at 5 min, 37 MBq/mL ([5]; mouse) was 100% and the recovery at 10 min, 37 MBq/mL ([5]; mouse) was 100%. For the same compound, the recovery at 30 min, 37 MBq/mL ([5]; mouse) was 100%, the recovery at 60 min, 37 MBq/mL ([5]; mouse) was 100% and the recovery at 5 min, 37 MBq/mL [6] was 100%. For the same compound, the recovery at 10 min, 37 MBq/mL [6] was 100%, the recovery at 30 min, 37 MBq/mL [6] was 100% and the recovery at 60 min, 37 MBq/mL [6] was 100%. The “time stable in presence of primary mouse hepatocytes” value [7] was “at least 1 hour” and the “degradation or metabolization products with primary mouse hepatocytes” value ([7]; 5, 10, 30 and 60 minutes) was “metabolically stable; also recorded: No degradation or metabolization products”.
